Experimental data from patent publication US10106853B2, “CUL4B as predictive biomarker for cancer treatment” (CORNELL UNIVERSITY, priority 2012, dated 2018).

Columns and labels:
γH2AX in BT474 cells = assay: Western blot analysis for γH2AX; assay type: cell-based, Human; conditions: CPT-treated BT474 cells with CUL4B silencing via shRNA vs control; 2 μM CPT
Protocol: FIG. 3. CUL4B^k/d BT474 cells are susceptible to CPT-induced DNA damage. A) Persistent DNA damage in CPT-treated BT474-CUL4B^k/d cells. Control or CUL4B^k/d BT474 cells were treated with 2 μM of CPT for the indicated time periods, replenished with CPT-free fresh medium, incubated at 37° C. for 1 hour to repair DNA damage, and subjected to immunoblotting with the anti-γH2AX antibody to determine the extent of DNA damage. B) Immunofluorescent detection of γH2AX foci in control or CUL4B^k/d BT474 cells following CPT treatment. BT474 cells were infected with lentiviral control shRNA (shCtrl) or shCUL4B, treated with 2 μM CPT for 2 hours and replenished with CPT-free fresh medium, incubated at 37° C. for 1 hour to repair DNA damage. γH2AX foci were detected by immunofluorescent assay with the rabbit anti-γH2AX antibody and goat anti-rabbit secondary antibody conjugated with cy3 (red). Nuclei were stained with DAPI (blue). C, D) Percentage of γH2AX-positive cells and number of persistent γH2AX foci in a total of 300 γH2AX-positive cells. All values were presented as mean±S.E. Statistical significance was assessed by a two-tailed unpaired Student t-test (***: p<0.001). […]

[1] = tested on: γH2AX foci in BT474 cells; assay: Immunofluorescent detection of γH2AX foci; assay type: cell-based, Human; conditions: 2 μM CPT 2 hours, 1 hour repair
Protocol: FIG. 3. CUL4B^k/d BT474 cells are susceptible to CPT-induced DNA damage. A) Persistent DNA damage in CPT-treated BT474-CUL4B^k/d cells. Control or CUL4B^k/d BT474 cells were treated with 2 μM of CPT for the indicated time periods, replenished with CPT-free fresh medium, incubated at 37° C. for 1 hour to repair DNA damage, and subjected to immunoblotting with the anti-γH2AX antibody to determine the extent of DNA damage. B) Immunofluorescent detection of γH2AX foci in control or CUL4B^k/d BT474 cells following CPT treatment. BT474 cells were infected with lentiviral control shRNA (shCtrl) or shCUL4B, treated with 2 μM CPT for 2 hours and replenished with CPT-free fresh medium, incubated at 37° C. for 1 hour to repair DNA damage. γH2AX foci were detected by immunofluorescent assay with the rabbit anti-γH2AX antibody and goat anti-rabbit secondary antibody conjugated with cy3 (red). Nuclei were stained with DAPI (blue). C, D) Percentage of γH2AX-positive cells and number of persistent γH2AX foci in a total of 300 γH2AX-positive cells. All values were presented as mean±S.E. Statistical significance was assessed by a two-tailed unpaired Student t-test (***: p<0.001).
Cells were initially grown on chamber slides. […] After PBS washes, cells were mounted with FluroSave™ Reagent (Calbiochem), and visualized under the fluorescence microscope, and images were captured via camera.

**Q.** For `CC[C@@]1(O)C(=O)OCc2c1cc1n(c2=O)Cc2cc3ccccc3nc2-1` [CPT, (S)-4-ethyl-4-hydroxy-1H-pyrano[3′,4′:6,7]indolizino[1,2-b]quinoline-3,14-(4H, 12H)-dione], which “Levels of γH2AX (Western blotting)” value (γH2AX in BT474 cells) is on record?
**A.** The value was “elevated”.

**Q.** What about the “Cells with accumulation of γH2AX foci” value ([1]; CPT-treated CUL4B k/d BT474 cells) of the same molecule?
**A.** The value was 50%.

**Q.** And the “Cells with accumulation of γH2AX foci” value ([1]; CPT-treated control BT474 cells)?
**A.** Its value is 20%.
